For one experiment, the target named is T1, Coagulation factor VII (Homo sapiens, UniProt P08709).
T1 sequence (P08709 whole entry): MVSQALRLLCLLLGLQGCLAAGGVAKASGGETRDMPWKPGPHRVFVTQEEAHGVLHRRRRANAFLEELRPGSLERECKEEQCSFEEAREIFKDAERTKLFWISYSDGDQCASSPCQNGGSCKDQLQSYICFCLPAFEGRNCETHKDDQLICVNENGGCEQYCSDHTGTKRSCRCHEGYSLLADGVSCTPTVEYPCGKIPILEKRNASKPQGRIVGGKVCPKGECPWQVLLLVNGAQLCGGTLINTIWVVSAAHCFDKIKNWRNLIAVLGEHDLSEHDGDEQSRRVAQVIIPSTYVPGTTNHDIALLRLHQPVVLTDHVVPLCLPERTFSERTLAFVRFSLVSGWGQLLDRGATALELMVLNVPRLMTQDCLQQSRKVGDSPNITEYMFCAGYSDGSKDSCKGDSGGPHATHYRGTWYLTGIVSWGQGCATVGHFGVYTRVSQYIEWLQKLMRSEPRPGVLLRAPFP
The experiment can be described thus: Inhibitory concentration against Coagulation factor VIIa.

Experiment [1] in a line: Inhibitory concentration against Trypsin.
Experiment [2] in a line: Inhibitory concentration against Coagulation factor Xa.
The nature of experiment [3]: Inhibitory concentration against Factor IIa.

Our source for the IC50 values is ChEMBL document CHEMBL1139615, “Structure-based design and synthesis of pyrazinones containing novel P1 'side pocket' moieties as inhibitors of TF/VIIa” (Bioorg Med Chem Lett, 2005).

The term IC50 denotes the point on the concentration scale where inhibition reaches its midpoint. A high value points to lower potency.

On to `CC[C@@H](C)NC(=O)c1cc(N)cc(-c2cnc(NC(C)C)c(=O)n2CC(=O)NCc2ccc(C(=N)N)cc2C(=O)NCCN2CCOCC2)c1`, for which the IC50 was 20 nM against Coagulation factor VII, 21 nM in experiment [1], more than 30000 nM in experiment [2] and 16700 nM in experiment [3].

In the case of `CC[C@@H](C)NC(=O)c1cc(N)cc(-c2cnc(NC(C)C)c(=O)n2CC(=O)NCc2ccc(C(=N)N)cc2C(=O)NCC(=O)O)c1`, the IC50 was 21 nM at Coagulation factor VII, 16 nM in experiment [1], more than 30000 nM in experiment [2] and more than 30000 nM in experiment [3].

For `CC[C@@H](C)NC(=O)c1cc(N)cc(-c2cnc(NC(C)C)c(=O)n2CC(=O)NCc2ccc(C(=N)N)cc2C(=O)NCC(=O)OC)c1`, the 50% inhibitory concentration (IC50) is 23 nM at Coagulation factor VII, 31 nM in experiment [1], more than 30000 nM in experiment [2] and 26700 nM in experiment [3].

For `CC[C@@H](C)NC(=O)c1cc(N)cc(-c2cnc(NC(C)C)c(=O)n2CC(=O)NCc2ccc(C(=N)N)cc2)c1`, the IC50 was 1.7 nM against Coagulation factor VII, 15 nM in experiment [1], more than 30000 nM in experiment [2] and 6100 nM in experiment [3].

Regarding `CC[C@@H](C)NC(=O)c1cc(N)cc(-c2cnc(NC(C)C)c(=O)n2CC(=O)NCc2ccc(C(=N)N)cc2C(=O)O)c1`, the IC50 against Coagulation factor VII was 152 nM; in experiment [1], 50 nM; in experiment [2] it was more than 30000 nM; in experiment [3], more than 30000 nM.

For `CC[C@@H](C)NC(=O)c1cc(N)cc(-c2cnc(NC(C)C)c(=O)n2CC(=O)NCc2ccc(C(=N)N)cc2C(=O)NCC(F)(F)F)c1`, the 50% inhibitory concentration (IC50) against Coagulation factor VII was 12 nM; in experiment [1] it was 15 nM; in experiment [2], more than 30000 nM; in experiment [3], 22600 nM.

As for `CC[C@@H](C)NC(=O)c1cc(N)cc(-c2cnc(NC(C)C)c(=O)n2CC(=O)NCc2ccc(C(=N)N)cc2C(N)=O)c1`, the IC50 on Coagulation factor VII is 6.2 nM; in experiment [1], 20 nM; in experiment [2], more than 30000 nM; in experiment [3], 13700 nM.

As to `CC[C@@H](C)NC(=O)c1cc(N)cc(-c2cnc(NC(C)C)c(=O)n2CC(=O)NCc2ccc(C(=N)N)cc2C(=O)Nc2ccncc2)c1`, the IC50 in experiment [1] was 28 nM; in experiment [2], more than 30000 nM; in experiment [3], more than 30000 nM.
